From patent US20260166159A1, “KRAS G12D DEGRADATION AGENT, AND PREPARATION METHOD AND USE THEREFOR” (LEADINGTAC PHARMACEUTICAL (SHAOXING) CO., LTD., priority 2022, published 2026)

What was measured:
phosphorylated ERK = assay: KRAS G12D-mediated phosphorylated ERK inhibition assay (AlphaLISA), A427; assay type: cell-based; details: Homo sapiens, A-427; A427 cells; class symbols; read-out: pERK (A427) IC50
Experimental: The relative amounts of phosphorylated ERK and total ERK in the samples were separately determined according to the test methods provided in the instructions of the AlphaLISA SureFire Ultra p-ERK 1/2 (Thr202/Tyr204) kit (PerkinElmer) and the AlphaLISA SureFire Ultra TotalERK 1/2 kit (PerkinElmer).
The experimental procedures for the assay of the phosphorylated ERK and total ERK were as follows: 10 μL of each sample was added to a 384-well plate (Greiner), and 5 μL of the prepared Acceptor Beads (PerkinElmer) mixed solution (containing 50× Acceptor Beads 615, Activation Buffer, and equal volumes of Reaction Buffer 1 and Reaction Buffer 2) was added to each well; and the plate was incubated at room temperature for 2 h. Then 5 μL of 1× Donor Beads (PerkinElmer) diluted with Dilution Buffer was added to each well, and the plate was incubated at room temperature overnight. After the incubation was completed, AlphaLISA signal values for the phosphorylated ERK and total ERK were separately measured on an EnVision microplate reader (PerkinElmer) in the AlphaScreen standard mode. The following formula was adopted: phosphorylated ERK correction value=phosphorylated ERK AlphaLISA signal value/total ERK AlphaLISA signal value. The relative ratio of the phosphorylated ERK for each sample was calculated. The percentage inhibition rates of the compounds on the phosphorylated ERK at each concentration were calculated by comparing the relative value of the phosphorylated ERK with that of the DMSO control well. Then non-linear curve fittings for logarithmic concentration-inhibition rate were performed by the GraphPad Prism 8 analysis software, and the IC50 values of the compounds on the inhibition of the phosphorylated ERK were obtained (Table 2).

[1] = test system: KRAS G12D mutant human pancreatic cancer cell HPAC; assay: 3D cell proliferation inhibition assay, HPAC; assay type: cell-based; details: 168 h, 7 days, CTG
How it was run: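 Cells were seeded at 5×10^2 cells/well in low-adsorption plates with compound (10000–0.026 nM final, 0.2% DMSO) and grown for 7 days at 37 °C, 5% CO2. Viability was read by CTG luminescence after 60 min at room temperature. IC50 came from log concentration–inhibition curve fits, normalised to DMSO and medium-only controls.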

[2] = molecular target: T1, Human KRAS G12D 6His-tagged (Homo sapiens, UniProt P01116, G12D); assay: KRAS-G12D/GTP binding assay (HTRF); details: class symbols
T1 construct: purchased PerkinElmer
How it was run: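 HTRF kit format: 6His-tagged KRAS G12D incubated with compound (final 0.02-5000 nM, 0.5% DMSO), anti-6His Eu cryptate antibody and GTP Red reagent for 1 h at 25° C. 665/620 nm ratio versus control gave inhibition rates; IC50 by nonlinear fit.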

T1 sequence (P01116 1-188 isoform P01116-2 G12D): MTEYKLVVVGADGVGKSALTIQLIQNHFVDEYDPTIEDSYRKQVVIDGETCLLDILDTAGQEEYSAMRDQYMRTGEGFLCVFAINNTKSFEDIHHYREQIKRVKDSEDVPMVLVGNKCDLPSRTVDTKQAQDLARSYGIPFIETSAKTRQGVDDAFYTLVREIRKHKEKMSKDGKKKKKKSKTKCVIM

Compound | IC50 (phosphorylated ERK) | IC50 [1] | IC50 [2]
C#Cc1c(F)ccc2cc(O)cc(-c3ncc4c(N5CC6CCC(C5)N6)nc(OCC5(CN6CCN(CC7CCC8(CC7)CCN(C(=O)c7ccc(Cl)c(N9CCC(=O)NC9=O)c7)CC8)CC6)CC5)nc4c3F)c12 [Example 6, 1-(5-(9-((4-((1-(((4-(3,8-diazabicyclo[3.2.1]octan-3-yl)-7-(8-ethynyl-7-fluoro-3-hydroxynaphthalen-1-yl)-8-fluoropyrido[4,3-d]pyrimidin-2-yl)oxy)methyl)cyclopropyl)methyl)piperazin-1-yl)methyl)-3-azaspiro[5.5]undecane-3-carbonyl)-2-chlorophenyl)dihydropyrimidine-2,4(1H,3H)-dione] | ≤ 50 nM | 5.35 nM | ≤ 50 nM
CCc1c(F)ccc2cc(O)cc(-c3ncc4c(N5CC6CCC(C5)N6)nc(OCC5(CN6CCN(CC7CCC8(CC7)CCN(C(=O)c7ccc(OC)c(N9CCC(=O)NC9=O)c7)CC8)CC6)CC5)nc4c3F)c12 [Example 15, 1-(5-(9-((4-((1-(((4-(3,8-diazabicyclo[3.2.1]octan-3-yl)-7-(8-ethyl-7-fluoro-3-hydroxynaphthalen-1-yl)-8-fluoropyrido[4,3-d]pyrimidin-2-yl)oxy)methyl)cyclopropyl)methyl)piperazin-1-yl)methyl)-3-azaspiro[5.5]undecane-3-carbonyl)-2-methoxyphenyl)dihydropyrimidine-2,4(1H,3H)-dione] | ≤ 50 nM | 4.06 nM | ≤ 50 nM
C#Cc1c(F)ccc2cc(O)cc(-c3ncc4c(N5CC6CCC(C5)N6)nc(OCC5(CN6CCN(CCCCC7CCC8(CC7)CCN(C(=O)c7ccc(Cl)c(N9CCC(=O)NC9=O)c7)CC8)CC6)CC5)nc4c3F)c12 [Example 31, 1-(5-(9-(4-(4-((1-(((4-(3,8-diazabicyclo[3.2.1]octan-3-yl)-7-(8-ethynyl-7-fluoro-3-hydroxynaphthalen-1-yl)-8-fluoropyrido[4,3-d]pyrimidin-2-yl)oxy)methyl)cyclopropyl)methyl)piperazin-1-yl)butyl)-3-azaspiro[5.5]undecane-3-carbonyl)-2-chlorophenyl)dihydropyrimidine-2,4(1H,3H)-dione] | ≤ 50 nM | – | ≤ 50 nM
C#Cc1c(F)ccc2cc(O)cc(-c3ncc4c(N5CC6CCC(C5)N6)nc(OC[C@@H]5CCCN5CCC5CCC6(CC5)CCN(C(=O)c5ccc(Cl)c(N7CCC(=O)NC7=O)c5)CC6)nc4c3F)c12 [Example 32, 1-(5-(9-(2-((S)-2-(((4-(3,8-diazabicyclo[3.2.1]octan-3-yl)-7-(8-ethynyl-7-fluoro-3-hydroxynaphthalen-1-yl)-8-fluoropyrido[4,3-d]pyrimidin-2-yl)oxy)methyl)pyrrolidin-1-yl)ethyl)-3-azaspiro[5.5]undecane-3-carbonyl)-2-chlorophenyl)dihydropyrimidine-2,4(1H,3H)-dione] | 1000 to 10000 nM | – | 500 to 1000 nM
C#Cc1c(F)ccc2cc(O)cc(-c3ncc4c(N5CC6CCC(C5)N6)nc(OCC56CC(CN7CCN(CC8CCC9(CC8)CCN(C(=O)c8ccc(Cl)c(N%10CCC(=O)NC%10=O)c8)CC9)CC7)(C5)C6)nc4c3F)c12 [Example 33, 1-(5-(9-((4-((3-(((4-(3,8-diazabicyclo[3.2.1]octan-3-yl)-7-(8-ethynyl-7-fluoro-3-hydroxynaphthalen-1-yl)-8-fluoropyrido[4,3-d]pyrimidin-2-yl)oxy)methyl)bicyclo[1.1.1]pentan-1-yl)methyl)piperazin-1-yl)methyl)-3-azaspiro[5.5]undecane-3-carbonyl)-2-chlorophenyl)dihydropyrimidine-2,4(1H,3H)-dione] | ≤ 50 nM | – | 100 to 500 nM
C#Cc1c(F)ccc2cc(O)cc(-c3ncc4c(N5CC6CCC(C5)N6)nc(OCC5(CN6CCN(CC7CCC8(CC7)CCN(C(=O)c7ccc(C)c(N9CCC(=O)NC9=O)c7)CC8)CC6)CC5)nc4c3F)c12 [Example 36, 1-(5-(9-((4-((1-(((4-(3,8-diazabicyclo[3.2.1]octan-3-yl)-7-(8-ethynyl-7-fluoro-3-hydroxynaphthalen-1-yl)-8-fluoropyrido[4,3-d]pyrimidin-2-yl)oxy)methyl)cyclopropyl)methyl)piperazin-1-yl)methyl)-3-azaspiro[5.5]undecane-3-carbonyl)-2-methylphenyl)dihydropyrimidine-2,4(1H,3H)-dione] | ≤ 50 nM | 1.19 nM | ≤ 50 nM
